Experimental data published in PubChem BioAssay AID2060883 (Molecular Pharmacology Branch, DTP, NCI, 2025).
pIC50: −log10 of the molar value. Where “and” joins values, the source holds several entries; their conditions need not be identical. Equal entries are not always repeated.

Test system: 843782-103-R-J1-PDC complex spheroid viability
Test: Anticancer human tumor 843782-103-R-J1-PDC patient-derived lung adenocarcinoma cell line growth inhibition [RAS]
Conditions: for pIC50: curve of first compound; for viability, T/C: stronger effect = lower value
How it was run: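 Agents were tested in combination matrices in half-log decrements from a top concentration at or near clinical Cmax (10 microM if undetermined). Targets were multi-cell spheroids of tumour lines plus HUVEC and MSC stromal cells.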

[1] = second compound 0.0316 µM, first compound 0.0316 µM
[2] = second compound 0.0316 µM, first compound 0.1 µM
[3] = second compound 0.0316 µM, first compound 0.316 µM
[4] = second compound 0.0316 µM, first compound 1 µM
[5] = second compound 0.1 µM, first compound 0.0316 µM
[6] = second compound 0.1 µM, first compound 0.1 µM
[7] = second compound 0.1 µM, first compound 0.316 µM
[8] = second compound 0.1 µM, first compound 1 µM
[9] = second compound 0.316 µM, first compound 0.0316 µM
[10] = second compound 0.316 µM, first compound 0.1 µM
[11] = second compound 0.316 µM, first compound 0.316 µM
[12] = second compound 0.316 µM, first compound 1 µM
[13] = second compound 1 µM, first compound 0.0316 µM
[14] = second compound 1 µM, first compound 0.1 µM
[15] = second compound 1 µM, first compound 0.316 µM
[16] = second compound 1 µM, first compound 1 µM
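Further: viability read after seven days of compound exposure.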

Nc1ccn(C2OC(CO)C(O)C2(F)F)c(=O)n1 (stereo not drawn) + CCn1c(-c2cccnc2C(C)OC)c2c3cc(ccc31)N1CCOC(CC(NC(=O)C(C(C)C)N(C)C(=O)C3(F)CCN(C(=O)C#CC(C)(C)N(C)C)CC3)C(=O)N3CCCC(N3)C(=O)OCC(C)(C)C2)C1
pIC50 (second compound 0.000949 µM): 7.96 | pIC50 (second compound 0.003 µM): 7.78 | pIC50 (second compound 0.00949 µM): 7.88 | pIC50 (second compound 0.03 µM): 7.78 | pIC50 (second compound 0.0949 µM): 7.77 | pIC50 (second compound 0.3 µM): 7.84 | viability, T/C (second compound 0.000949 µM, first compound 0.00316 µM): 70.1% | viability, T/C (second compound 0.000949 µM, first compound 0.01 µM): 52% | viability, T/C (second compound 0.000949 µM, first compound 0.0316 µM): 22.1% | viability, T/C (second compound 0.000949 µM, first compound 0.1 µM): 2.91% | viability, T/C (second compound 0.000949 µM, first compound 0.316 µM): 1.53% | viability, T/C (second compound 0.000949 µM, first compound 1 µM): 1.52% | viability, T/C (second compound 0.003 µM, first compound 0.00316 µM): 77.5% | viability, T/C (second compound 0.003 µM, first compound 0.01 µM): 72% | viability, T/C (second compound 0.003 µM, first compound 0.0316 µM): 21.7% | viability, T/C (second compound 0.003 µM, first compound 0.1 µM): 2.04% | viability, T/C (second compound 0.003 µM, first compound 0.316 µM): 1.96% | viability, T/C (second compound 0.003 µM, first compound 1 µM): 2.38% | viability, T/C (second compound 0.00949 µM, first compound 0.00316 µM): 73.3% | viability, T/C (second compound 0.00949 µM, first compound 0.01 µM): 59.4% | viability, T/C (second compound 0.00949 µM, first compound 0.0316 µM): 18.9% | viability, T/C (second compound 0.00949 µM, first compound 0.1 µM): 2.07% | viability, T/C (second compound 0.00949 µM, first compound 0.316 µM): 1.82% | viability, T/C (second compound 0.00949 µM, first compound 1 µM): 1.89% | viability, T/C (second compound 0.03 µM, first compound 0.00316 µM): 72.4% | viability, T/C (second compound 0.03 µM, first compound 0.01 µM): 74.5% | viability, T/C (second compound 0.03 µM, first compound 0.0316 µM): 21.1% | viability, T/C (second compound 0.03 µM, first compound 0.1 µM): 2.07% | viability, T/C (second compound 0.03 µM, first compound 0.316 µM): 1.99% | viability, T/C (second compound 0.03 µM, first compound 1 µM): 1.85% | viability, T/C (second compound 0.0949 µM, first compound 0.00316 µM): 85.6% | viability, T/C (second compound 0.0949 µM, first compound 0.01 µM): 69.9% | viability, T/C (second compound 0.0949 µM, first compound 0.0316 µM): 26.4% | viability, T/C (second compound 0.0949 µM, first compound 0.1 µM): 2.27% | viability, T/C (second compound 0.0949 µM, first compound 0.316 µM): 1.51% | viability, T/C (second compound 0.0949 µM, first compound 1 µM): 1.37% | viability, T/C (second compound 0.3 µM, first compound 0.00316 µM): 70.4% | viability, T/C (second compound 0.3 µM, first compound 0.01 µM): 62.7% | viability, T/C (second compound 0.3 µM, first compound 0.0316 µM): 21.8% | viability, T/C (second compound 0.3 µM, first compound 0.1 µM): 2.7% | viability, T/C (second compound 0.3 µM, first compound 0.316 µM): 1.81% | viability, T/C (second compound 0.3 µM, first compound 1 µM): 1.46%

Cc1nc(N2CCC3(CC2)COC(C)C3N)c(CO)nc1Sc1ccnc(N)c1Cl (stereo not drawn) + C=CC(=O)N1CCN(c2nc(OCC3CCCN3C)nc3c(F)c(-c4nc(N)cc(C)c4C(F)(F)F)c(Cl)cc23)C(C)C1
pIC50 (second compound 0.00316 µM): 6.68 | pIC50 (second compound 0.01 µM): 6.41 | pIC50 (second compound 0.0316 µM): 6.70 | pIC50 (second compound 0.1 µM): 6.51 | pIC50 (second compound 0.316 µM): 6.56 | pIC50 (second compound 1 µM): 6.50 | viability, T/C (second compound 0.00316 µM, first compound 0.0316 µM): 88.9% | viability, T/C (second compound 0.00316 µM, first compound 0.1 µM): 58.6% | viability, T/C (second compound 0.00316 µM, first compound 0.316 µM): 47.4% | viability, T/C (second compound 0.00316 µM, first compound 1 µM): 32.8% | viability, T/C (second compound 0.00316 µM, first compound 3.16 µM): 32.5% | viability, T/C (second compound 0.00316 µM, first compound 10 µM): 27.2% | viability, T/C (second compound 0.01 µM, first compound 0.0316 µM): 79.5% | viability, T/C (second compound 0.01 µM, first compound 0.1 µM): 66.8% | viability, T/C (second compound 0.01 µM, first compound 0.316 µM): 51.4% | viability, T/C (second compound 0.01 µM, first compound 1 µM): 37.4% | viability, T/C (second compound 0.01 µM, first compound 3.16 µM): 35.6% | viability, T/C (second compound 0.01 µM, first compound 10 µM): 22.6% | viability, T/C [1]: 77.7% | viability, T/C [2]: 57.6% | viability, T/C [3]: 45.8% | viability, T/C [4]: 36.2% | viability, T/C (second compound 0.0316 µM, first compound 3.16 µM): 30.5% | viability, T/C (second compound 0.0316 µM, first compound 10 µM): 32.1% | viability, T/C [5]: 70% | viability, T/C [6]: 61.4% | viability, T/C [7]: 51.5% | viability, T/C [8]: 35% | viability, T/C (second compound 0.1 µM, first compound 3.16 µM): 35.1% | viability, T/C (second compound 0.1 µM, first compound 10 µM): 27.1% | viability, T/C [9]: 85.7% | viability, T/C [10]: 67% | viability, T/C [11]: 48% | viability, T/C [12]: 34.2% | viability, T/C (second compound 0.316 µM, first compound 3.16 µM): 35.5% | viability, T/C (second compound 0.316 µM, first compound 10 µM): 26.9% | viability, T/C [13]: 80.6% | viability, T/C [14]: 64.3% | viability, T/C [15]: 49.7% | viability, T/C [16]: 40.2% | viability, T/C (second compound 1 µM, first compound 3.16 µM): 31.1% | viability, T/C (second compound 1 µM, first compound 10 µM): 29.7%

CC(C)NCC(C(=O)N1CCN(c2ncnc3c2C(C)CC3O)CC1)c1ccc(Cl)cc1 (stereo not drawn)
viability, T/C (compound 0.0316 µM): 106% (2×) and 97% and 95.9% | viability, T/C (compound 0.1 µM): 96.2% [middle of 4 runs] | viability, T/C (compound 0.316 µM): 92.3% [middle of 4 runs] | viability, T/C (compound 1 µM): 62.4% [middle of 4 runs] | viability, T/C (compound 3.16 µM): 30% [middle of 4 runs] | viability, T/C (compound 10 µM): 13.7% [middle of 4 runs] | IC50 (curve of compound): 1.54 µM [middle of 4 runs]

Nc1ccn(C2OC(CO)C(O)C2(F)F)c(=O)n1 (stereo not drawn) + C#Cc1c(F)ccc2cc(O)cc(-c3ncc4c(N5CC6CCC(C5)N6)nc(OCC56CCCN5CC(F)C6)nc4c3F)c12
pIC50 (second compound 0.0316 µM): 7.53 | pIC50 (second compound 0.1 µM): 7.41 | pIC50 (second compound 0.316 µM): 7.37 | pIC50 (second compound 1 µM): 7.49 | pIC50 (second compound 3.16 µM): 7.66 | pIC50 (second compound 10 µM): 7.84 | viability, T/C (second compound 0.0316 µM, first compound 0.00316 µM): 101% | viability, T/C (second compound 0.0316 µM, first compound 0.01 µM): 101% | viability, T/C [1]: 46.1% | viability, T/C [2]: 8.18% | viability, T/C [3]: 2.69% | viability, T/C [4]: 1.88% | viability, T/C (second compound 0.1 µM, first compound 0.00316 µM): 99.5% | viability, T/C (second compound 0.1 µM, first compound 0.01 µM): 106% | viability, T/C [5]: 59.7% | viability, T/C [6]: 8.24% | viability, T/C [7]: 1.77% | viability, T/C [8]: 1.7% | viability, T/C (second compound 0.316 µM, first compound 0.00316 µM): 107% | viability, T/C (second compound 0.316 µM, first compound 0.01 µM): 103% | viability, T/C [9]: 65.4% | viability, T/C [10]: 5.81% | viability, T/C [11]: 2.1% | viability, T/C [12]: 2.74% | viability, T/C (second compound 1 µM, first compound 0.00316 µM): 110% | viability, T/C (second compound 1 µM, first compound 0.01 µM): 90.7% | viability, T/C [13]: 54.1% | viability, T/C [14]: 9.25% | viability, T/C [15]: 2.99% | viability, T/C [16]: 2.29% | viability, T/C (second compound 3.16 µM, first compound 0.00316 µM): 93% | viability, T/C (second compound 3.16 µM, first compound 0.01 µM): 73.8% | viability, T/C (second compound 3.16 µM, first compound 0.0316 µM): 40% | viability, T/C (second compound 3.16 µM, first compound 0.1 µM): 7.44% | viability, T/C (second compound 3.16 µM, first compound 0.316 µM): 2.53% | viability, T/C (second compound 3.16 µM, first compound 1 µM): 1.91% | viability, T/C (second compound 10 µM, first compound 0.00316 µM): 64.6% | viability, T/C (second compound 10 µM, first compound 0.01 µM): 59.5% | viability, T/C (second compound 10 µM, first compound 0.0316 µM): 30.3% | viability, T/C (second compound 10 µM, first compound 0.1 µM): 9.79% | viability, T/C (second compound 10 µM, first compound 0.316 µM): 3.81% | viability, T/C (second compound 10 µM, first compound 1 µM): 3%
